From patent US10875861B1, “Therapeutic compounds” (Rutgers, The State University of New Jersey, priority 2017, dated 2020)
Where a name gives a salt, the structure may show the parent alone.

Assays:
[1] = test system: Zebrafish embryo; experiment: Zebrafish embryo toxicology assay; format: in vivo
Description: (§1) BMI-1 inhibitors were developed by the Molecular Design and Synthesis laboratory, Rutgers Translational Sciences at Rutgers University, NJ, USA. […] (Generic name is PTC-209) was characterized among a screen for post-transcriptional inhibitors of BMI-1. Zebrafish embryo toxicology assays were used to select RU-A compounds with no embryonic toxicity in vivo (a surrogate assay for toxic effects on normal stem cells). […] Cells were counted using Beckman Coulter Vi-CELL Cell Viability Analyzer, and cell viability was confirmed by CellTiter-Glo Luminescent Cell Viability Assay (Promega, Madison, Wis., USA) according to standard protocols and analyzed with a Victor 2 plate reader (Wallac, Turku, Finland).

[2] = test system: BMI-1 protein; experiment: Inhibition of BMI-1 protein levels in U87 cells (Western blotting); format: cell-based; conditions: read-out: IC50, inhibition of BMI-1 protein levels, U87 glioblastoma cell lysate, 72 hours
Protocol: U87 cells were treated with DMSO or different concentrations of compound B1 for 72 hours. Cells were lysed in Cell Lysis Buffer (Cell Signaling, #9803) supplemented with Protease Inhibitor Cocktail (Sigma, #P8340), sonicated briefly while on ice and spun down for 30 minutes at 4° C., after which the supernatant was collected. For each sample, 2 uL of lysate was mixed well into 198 uL de-ionized water. Next, 10 uL of this diluted sample was added to a well in a 96 well plate in quadruplets and mixed with Protein Assay Dye Reagent Concentrate (Bio-Rad, #500-0006) (which was diluted 1:5 with water). BSA standards of 25 ng, 50 ng, 100 ng, 200 ng and 250 ng were also used to the plate and mixed with the reagent. The plate was read in a plate reader at 600 nm and samples were calibrated to the standards to determine the concentration of protein. Using the NuPAGE system (Invitrogen), 25 ug of protein was mixed with NuPAGE LDS 4× Sample Buffer (#NP0007), NuPAGE 10× Reducing Agent (#NP0004) and water, mixed well and heated at 96° C. for 15 minutes to denature the protein. […] Protein signals were detected using ECL Western Blotting Substrate (Pierce, #32106) and filmed.
U87 cells were treated with DMSO or different concentrations of the inhibitors for 72 hours. […] The plate was read in a plate reader at 600 nm and samples were calibrated to the standards to determine the concentration of protein. […]

[3] = test system: BMI-1 5'UTR; experiment: Luciferase plasmid containing the BMI-1 5'UTR with or without binding pocket; format: cell-based
Protocol: Since translation initiation is dependent on RNA folding, the 3D folding of the BMI-1 5′UTR was examined. To identify sequences that fold into a target minimum and maximum free energy (MFE) secondary structure, inverse RNA folding of the BMI-1 5′UTR was performed using the mFold server. A highly probable, probability annotated group of secondary structures were identified, starting with the MFE, centroid energy structures and including fourteen other probabilities. […] In a luciferase plasmid containing the BMI-1 5′UTR, the sequences of the pocket region that contains the potential binding site was removed by cutting with compatible restriction enzymes and re-ligating the plasmid. The luciferase activity was examined with the luc plasmids or without the binding pocket upon treatment with the inhibitors. […] Thus, RU-A15/A16 engages with the BMI-1 UTR regulatory mechanisms.

[4] = test system: normal astrocytes; experiment: Effects on normal astrocytes; format: cell-based
Description: as §1

[5] = test system: BMI-1 and ubiquitinated histone H2A in primary glioblastoma cells; experiment: Modulation / dynamics of BMI-1 and downstream targets in GBM cells (Western blotting); format: cell-based, human
Protocol: Different GBM cells were treated with DMSO or different concentrations of the B compounds for 72 hours. Cells were lysed in Cell Lysis Buffer (Cell Signaling, #9803) supplemented with Protease Inhibitor Cocktail (Sigma, #P8340), spun down for 30 minutes at 4° C., after which the supernatant was collected at every time point indicated. Western blotting analysis was performed on all samples as described above. BMI-1 loss started at 6-12 h, coinciding with an upper shift and hyper-phosphorylation of BMI-1 at 12-24 h and complete depletion at 72 h.
To study the compound dynamic activity against GBM spheres, GBMs were tested with exemplary compounds. Different GBM cells were treated with DMSO or different concentrations of the inhibitors for 72 hours. Cells were lysed in Cell Lysis Buffer (Cell Signaling, #9803) supplemented with Protease Inhibitor Cocktail (Sigma, #P8340), spun down for 30 minutes at 4° C., after which the supernatant was collected at every time point indicated. Western blotting analysis was performed on all samples as described above. […] BMI-1 loss started at 6-12 h, coinciding with an upper shift and hyper-phosphorylation of BMI-1 at 12-24 h and complete depletion at 72 h. […] This is expected since BMI-1 is known to suppress p21. BMI-1 inhibition could be reversed using phosphatase treatment, moreover, when proteasomal inhibitor is added to treated cells after 24 h, BMI-1 is locked in the phosphorylated state, therefore showing that the phosphorylation event precedes BMI-1 degradation. The phosphorylation was independent of p38 kinase activation, as when we added […], the p38 inhibitor to the cultured cells upon treatment with the BMI-1 inhibitor, the combined treatment could not reverse the effects of RU-A15 on BMI-1 inhibition.

[6] = test system: BMI-1 and αENaC mRNA; experiment: mRNA expression of BMI-1 and αENaC on concomitant treatment with cyclohexamide; format: cell-based; conditions: RU-A15 100 nM, RU-A16 200 nM, concomitant with CHX
Protocol: Next, to test if Examples 3 and 4 are selective for BMI-1 RNA, cells were concomitantly treated with RU-A15/16 (100 nM, 200 nM, respectively) and cyclohexamide (CHX), a general translational inhibitor, and analyzed mRNA expression of BMI-1 and the CHX-specific target epithelial sodium channel (αENaC).

[7] = test system: U87 glioblastoma cells; experiment: Comparison of Example 3 and PTC-209 in U87 glioblastoma cells (cell viability); format: cell-based
Description: as §1

[8] = test system: glioblastoma cancer stem cells; experiment: Sphere selectivity ratio EC50(U87)/EC50(spheres); format: cell-based, human; conditions: ratio greater than controls (DMSO and Temozolomide)
Protocol: The selectivity and potency in U87 cells were assessed vs primary GBM. Dose-response curves were generated in both spheres and monocultures and used to determine a sphere selectivity ratio (targeting Glioblastoma Initiating Cells), defined as EC50(U87)/EC50(spheres), for each compound.

[9] = primary glioblastoma cells, Western blotting

COc1ccc(Nc2nc(-c3c(C)nc4ccccn34)cs2)cc1 [Example 3, N-(4-methoxyphenyl)-4-(2-methylimidaz[1,2-a]pyridin-3-yl)thiazol-2-aminehydrobromide]
effects in embryo assays [1]: no significant effects
IC50 [2]: 0.01 µM
normalized luc, BMI-1 5'UTR with intact binding pocket ([3]; intact minor groove potential binding pocket): significantly reduced normalized luc
normalized luc, binding pocket sequences removed ([3]; pocket sequences removed): not when the pocket sequences were removed
effects on normal astrocytes [4]: no significant effects
CDK inhibitor p21 ([5]; GBM#46 and #50): induced upregulation of the CDK inhibitor p21
lowest concentration giving dose-dependent loss of BMI-1 protein expression ([5]; GBM#50, 72 h): 25 nM
BMI-1 protein levels [5, 9]: inhibit BMI-1
WT p53 levels [5, 9]: increase WT p53 levels
ubiquitin H2A [5, 9]: inhibit ubiquitin H2A
BMI-1 mRNA expression [6]: did not inhibit
αENaC mRNA expression [6]: did not inhibit
potency relative to PTC-209 [7]: one thousand-fold more potent than PTC-209
IC50 ([7]; Homo sapiens, U-87 MG, 72 hours): 0.01 µM
selectivity for glioblastoma cancer stem cells (sphere selectivity ratio) [8]: high selectivity for glioblastoma cancer stem cells
